{
  "source": "paper PMC8514580",
  "about": "“Insight into the interaction between the RNA helicase CGH-1 and EDC-3 and its implications” (Scientific Reports, 2021)",
  "molecules": {"B1": {"name": "CAR-1_184–268: recombinant CAR-1 FDF-TFG (residues 184–268) (protein)", "chain": "LKFESDFDFEKANEKFQEVLVDNLEKLNIEDKAEPEVEEKKDAAFYDKKTSFFDNISCESLEKAEGKTGRPDWKKERETNQETFG", "modifications": "left off: His tag (from the modified vector pET-28a), end not stated, state not stated"}},
  "key": {"CGH-1_248-420^WT": {"molecular_target": "T1, CGH-1_248-420^WT (Caenorhabditis elegans, UniProt Q95YF3)", "T1 construct": "the cDNA fragments encoding CGH-1 RecA2 (residues 248–420); made in house; host or cells: E. coli Gold (DE3)", "T1 sequence (Q95YF3 248-420)": "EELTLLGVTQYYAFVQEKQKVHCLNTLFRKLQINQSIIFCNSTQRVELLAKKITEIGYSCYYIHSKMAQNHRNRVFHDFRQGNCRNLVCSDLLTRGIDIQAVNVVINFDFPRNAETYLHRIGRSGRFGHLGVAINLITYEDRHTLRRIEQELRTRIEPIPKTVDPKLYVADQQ", "assay": "ITC binding to CGH-1_248–420 WT", "set-up": "species or system C. elegans", "details": "for − TΔS: 20 °C, pH 7.5, 150 mM NaCl", "description": "(§1) Expression plasmids regarding CGH-1 and CAR-1 were constructed as previously described. In brief, the cDNA fragments encoding CGH-1 RecA2 (residues 248–420), CAR-1 FDF-TFG (residues 184–268) were amplified by PCR from C. elegans genome library and cloned into the NdeI and XhoI site of a modified pET-28a (Novagen) vector (p28a), in which a thrombin protease cleavage site was removed.\n(§2) CGH-1 protein expression and purification were performed described as in our most recent paper. In brief, proteins were expressed in E. coli Gold (DE3) strain (Novagen). […] Cells were resuspended in Buffer A (20 mM Tris–HCl, pH 7.5, 1 M NaCl), and then lysed using high pressure at 4 °C. Proteins were initially purified by Ni-chelating resin (Qiagen), and further purified by size exclusion chromatography (SEC) on a Superdex 75 column (GE healthcare) in Buffer A. The purified proteins were dialyzed into Buffer B (20 mM Tris–HCl, pH 7.5, 150 mM NaCl).\n(§3) A peptide containing the C. elegans EDC-3 FDF fragment (residues 235–271) and PATR-1 fragment (residues 30–67) were synthesized from GL Biochem (Shanghai, China) Co., Ltd, respectively. Stock solutions of peptide were prepared in Buffer B described above, and were adjusted to pH 7.5 ± 0.02 for subsequent experiments.\n(§4) ITC assays were performed as previously described. In brief, it was carried out on a MicroCal PEAQ-ITC (Malvern) at 20 °C with the following settings: reference power, 5 μcal/s; initial delay, 60 s; stir speed, 750 rpm; spacing time, 120 s. Proteins (or its mutants) and peptides were adjusted to 0.05 mM and 0.5 mM, respectively. Experiments were initialed by injection of 1 μl each of peptide into the sample cell (200 μl) filled with protein (or its mutants) solution, followed by 18 injections of 2 μl. The ITC data were fitted with a one-binding-site model using the Origin analysis software."}, "CGH-1_248-420^E396A": {"molecular_target": "T2, CGH-1_248-420^E396A (Caenorhabditis elegans, UniProt Q95YF3, E396A)", "T2 construct": "the cDNA fragments encoding CGH-1 RecA2 (residues 248–420); made in house; host or cells: E. coli Gold (DE3)", "T2 sequence (Q95YF3 248-420 E396A)": "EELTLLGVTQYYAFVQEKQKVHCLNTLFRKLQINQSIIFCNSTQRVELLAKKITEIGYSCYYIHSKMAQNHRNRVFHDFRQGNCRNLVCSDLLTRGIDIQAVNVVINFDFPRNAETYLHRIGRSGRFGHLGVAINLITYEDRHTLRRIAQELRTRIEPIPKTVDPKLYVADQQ", "assay": "ITC binding to CGH-1_248–420 E396A", "set-up": "species or system C. elegans", "details": "20 °C", "description": "as §1, §2, §3\n(§5) ITC assays were performed as previously described. […]"}, "CGH-1_248-420^Q266A": {"molecular_target": "T3, CGH-1_248-420^Q266A (Caenorhabditis elegans, UniProt Q95YF3, Q266A)", "T3 construct": "the cDNA fragments encoding CGH-1 RecA2 (residues 248–420); made in house; host or cells: E. coli Gold (DE3)", "T3 sequence (Q95YF3 248-420 Q266A)": "as the sequence (Q95YF3 248-420 E396A) above, with Q19A, A149E counted along it", "assay": "ITC binding to CGH-1_248–420 Q266A", "set-up": "species or system C. elegans", "details": "20 °C, pH 7.5, 150 mM NaCl, CGH-1 Q266A", "description": "as §1, §2, §3, §5"}, "CGH-1_248-420^H269A": {"molecular_target": "T4, CGH-1_248-420^H269A (Caenorhabditis elegans, UniProt Q95YF3, H269A)", "T4 construct": "the cDNA fragments encoding CGH-1 RecA2 (residues 248–420); made in house; host or cells: E. coli Gold (DE3)", "T4 sequence (Q95YF3 248-420 H269A)": "as the sequence (Q95YF3 248-420 E396A) above, with H22A, A149E counted along it", "assay": "ITC binding to CGH-1_248–420 H269A", "set-up": "species or system C. elegans", "details": "20 °C, pH 7.5, 150 mM NaCl, CGH-1 H269A", "description": "as §1, §2, §3, §5"}, "CGH-1_248–420 mutants": {"system": "CGH-1_248–420 mutants", "assay": "ITC binding to several CGH-1_248–420 single mutants", "set-up": "species or system C. elegans", "details": "substitution of each of Phe261, Gln266, His269 with Ala", "description": "as §1, §2, §3, §5"}, "CGH-1_248-420^R393A": {"molecular_target": "T5, CGH-1_248-420^R393A (Caenorhabditis elegans, UniProt Q95YF3, R393A)", "T5 construct": "the cDNA fragments encoding CGH-1 RecA2 (residues 248–420); made in house; host or cells: E. coli Gold (DE3)", "T5 sequence (Q95YF3 248-420 R393A)": "as the sequence (Q95YF3 248-420 E396A) above, with R146A, A149E counted along it", "format": "binding, C. elegans", "details": "ITC, 20 °C", "description": "as §1, §2, §3, §4"}, "CGH-1_248-420^K277A": {"molecular_target": "T6, CGH-1_248-420^K277A (Caenorhabditis elegans, UniProt Q95YF3, K277A)", "T6 construct": "the cDNA fragments encoding CGH-1 RecA2 (residues 248–420); made in house; host or cells: E. coli Gold (DE3)", "T6 sequence (Q95YF3 248-420 K277A)": "as the sequence (Q95YF3 248-420 E396A) above, with K30A, A149E counted along it", "format": "binding, C. elegans", "details": "ITC, 20 °C", "description": "as §1, §2, §3, §4"}, "CGH-1_248-420^F261A": {"molecular_target": "T7, CGH-1_248-420^F261A (Caenorhabditis elegans, UniProt Q95YF3, F261A)", "T7 construct": "the cDNA fragments encoding CGH-1 RecA2 (residues 248–420); made in house; host or cells: E. coli Gold (DE3)", "T7 sequence (Q95YF3 248-420 F261A)": "as the sequence (Q95YF3 248-420 E396A) above, with F14A, A149E counted along it", "format": "binding, C. elegans", "details": "ITC, 20 °C, pH 7.5, 150 mM NaCl; CGH-1 F261A", "description": "as §1, §2, §3, §4"}, "CGH-1_248-420^K277E": {"molecular_target": "T8, CGH-1_248-420^K277E (Caenorhabditis elegans, UniProt Q95YF3, K277E)", "T8 construct": "the cDNA fragments encoding CGH-1 RecA2 (residues 248–420); made in house; host or cells: E. coli Gold (DE3)", "T8 sequence (Q95YF3 248-420 K277E)": "as the sequence (Q95YF3 248-420 E396A) above, with K30E, A149E counted along it", "assay": "ITC binding to CGH-1_248–420 K277E", "set-up": "species or system C. elegans", "details": "20 °C", "description": "as §1, §2, §3, §5"}, "CGH-1_248-420^4A": {"molecular_target": "T9, CGH-1_248-420^4A (Caenorhabditis elegans, UniProt Q95YF3, C270A/H269A/L274A/T273A)", "T9 construct": "the cDNA fragments encoding CGH-1 RecA2 (residues 248–420); made in house; host or cells: E. coli Gold (DE3)", "T9 sequence (Q95YF3 248-420 H269A/C270A/T273A/L274A limits assumed)": "T1 sequence (Q95YF3 248-420) with H22A, C23A, T26A, L27A", "assay": "ITC binding to CGH-1_248–420 4A (H269A, C270A, T273A, L274A)", "set-up": "species or system C. elegans", "details": "CGH-1 4A vs WT", "description": "as §1, §2, §3, §4"}, "[1]": {"system": "CGH-1_248–420 binding to GST-EDC-3_230–566", "assay": "GST-pulldown competition, CGH-1_248–420 binding to GST-EDC-3_230–566", "set-up": "species or system C. elegans", "details": "PBS, 2 h, same amount of CAR-1_184–268 and CGH-1_248–420 (50 μg)", "description": "To investigate whether CAR-1_184–268 can affect CGH-1_248–420 binding to EDC-3_230–566, approximate 100 μg GST-tagged EDC-3_230–566 was incubated with GST resin, followed by three times of wash in PBS. The resin was then incubated with 50 μg CGH-1_248–420 in the absence or presence of the same amount of CAR-1_184–268 for 2 h, followed by five times of PBS wash, and captured proteins were finally analyzed as described above.\nTo investigate whether C. elegans PATR-1 peptide will affect the CGH-1 binding to GST-tagged EDC-3_230–566 protein, approximate 100 μg GST-tagged EDC-3_230–566 was incubated with GST resin, followed by three times of wash in PBS. The resin was then incubated with 50 μg CGH-1_248–420 without PATR-1 peptide (0 μM) or with varied concentration of PATR-1 peptide (12.5, 25, or 50 μM) for 2 h, and was washed five times in PBS. The captured proteins in resin were finally heated and analyzed using 12% SDS-PAGE."}},
  "note": "Positions count from the first letter of the chain named. No end group written: not given here.",
  "data": [
    {"molecule": "LADPIDFDLDSDFDFAENLKLFEKDENDDQYYETVEK [EDC-3_235–271]", "values": [
      {"measurement": "Kd", "setting": "CGH-1_248-420^WT", "result": "340 ± 20", "unit": "nM"},
      {"measurement": "− TΔS", "setting": "CGH-1_248-420^WT; ITC, CGH-1_248–420 WT", "result": 8.94, "unit": "kcal/mol"},
      {"measurement": "binding affinity of EDC-3 FDF-FEK motif relative to corresponding region of CAR-1 (by KD)", "setting": "CGH-1_248-420^WT; ITC, CGH-1_248–420, 0.34 μM (this work) vs 43 μM (ref 17)", "result": "> 126", "unit": "times"},
      {"measurement": "binding affinity relative to CAR-1_184–268 (by KD)", "setting": "CGH-1_248-420^WT; ITC, CGH-1_248–420 WT, 0.34 μM vs 3.03 μM", "result": "approximately ninefold stronger"},
      {"measurement": "KD(mut) / KD(wt)", "setting": "CGH-1_248-420^E396A; CGH-1 E396A vs WT", "result": "~ 2.5"},
      {"measurement": "− TΔS", "setting": "CGH-1_248-420^E396A; pH 7.5, 150 mM NaCl, CGH-1 E396A", "result": 7.92, "unit": "kcal/mol"},
      {"measurement": "− TΔS", "setting": "CGH-1_248-420^Q266A", "result": 4.34, "unit": "kcal/mol"},
      {"measurement": "− TΔS", "setting": "CGH-1_248-420^H269A", "result": 4.97, "unit": "kcal/mol"},
      {"measurement": "weakening of binding affinity, factor vs WT", "setting": "CGH-1_248–420 mutants", "result": "3.4–7.5"},
      {"measurement": "− TΔS", "setting": "CGH-1_248-420^R393A; pH 7.5, 150 mM NaCl, CGH-1 R393A", "result": 9.68, "unit": "kcal/mol"},
      {"measurement": "KD(mut) / KD(wt)", "setting": "CGH-1_248-420^R393A; CGH-1 R393A vs WT", "result": "~ 6.1"},
      {"measurement": "− TΔS", "setting": "CGH-1_248-420^K277A; pH 7.5, 150 mM NaCl, CGH-1 K277A", "result": 7.74, "unit": "kcal/mol"},
      {"measurement": "KD(mut) / KD(wt)", "setting": "CGH-1_248-420^K277A; CGH-1 K277A vs WT", "result": "~ 8.1"},
      {"measurement": "− TΔS", "setting": "CGH-1_248-420^F261A", "result": 6.17, "unit": "kcal/mol"},
      {"measurement": "KD(mut) / KD(wt)", "setting": "CGH-1_248-420^K277E; CGH-1 K277E vs WT", "result": "~ 17.5"},
      {"measurement": "− TΔS", "setting": "CGH-1_248-420^K277E; pH 7.5, 150 mM NaCl, CGH-1 K277E", "result": 4.48, "unit": "kcal/mol"},
      {"measurement": "KD(mut) / KD(wt)", "setting": "CGH-1_248-420^4A; 20 °C", "result": "~ 25.7"},
      {"measurement": "binding affinity compared to wildtype (in words)", "setting": "CGH-1_248-420^4A", "result": "dramatically impaired the binding affinity"},
      {"measurement": "binding affinity compared to wildtype (in words)", "setting": "CGH-1_248-420^4A; listed as EDC-3 peptide", "result": "dramatically disrupted the interaction"}
    ]},
    {"molecule": "B1", "values": [
      {"measurement": "− TΔS", "setting": "CGH-1_248-420^WT; ITC, CGH-1_248–420 WT", "result": 19.6, "unit": "kcal/mol"},
      {"measurement": "effect on binding of CGH-1_248–420 to EDC-3_230–566", "setting": "[1]", "result": "little or no effect"}
    ]}
  ]
}
